“Also recorded” adds a separate entry of the source. Counter-ions that a name gives are not always drawn. Square brackets hold non-standard residues; d marks the D form. Peptide text beside a SMILES is read from it. * marks the point of attachment. pY = N[C@@H](Cc1ccc(OP(=O)(O)O)cc1)C(=O)O; Hexanoyl = CCCCCC(=O)*; Ahx = NCCCCCC(=O)O
What was measured:
Format in all cases: physicochemical
[1] = Heating stress test, XRPD analysis; conditions: 100° C./60 minutes
Procedure: (§1) Sample is applied directly on a silicon plate holder. The X-ray powder diffraction pattern was measured with Philips X′Pert PRO X-ray powder diffractometer, equipped with Cu irradiation source=1.54184 Å (Ångström), X'Celerator (2.022° 2θ) detector. Scanning parameters: angle range: 3-40 deg., step size 0.0167, time per step 37 s, continuous scan.
A sample of Fosgonimeton mono sodium salt form N2 was subjected to heating to 100° C. for 60 minutes.
A sample of Fosgonimeton mono sodium salt form N5 was subjected to heating to 100° C. for 60 minutes.
A sample of Fosgonimeton mono potassium salt form K1 was subjected to heating to 100° C. for 60 minutes.
A sample of Fosgonimeton form 1 was subjected to heating to 100° C. for 60 minutes.

[2] = Pressure stress test (Specac Hydraulic Press), XRPD analysis; conditions: 2 tons/2 minutes
Procedure: as §1
A sample of Fosgonimeton mono sodium salt form N2 was subjected to a pressure of 2 ton (Specac Hydraulic Press, set to 2 tons).
A sample of Fosgonimeton mono sodium salt form N5 was subjected to a pressure of 2 ton (Specac Hydraulic Press, set to 2 tons).
A sample of Fosgonimeton mono potassium salt form K1 was subjected to a pressure of 2 tons (Specac Hydraulic Press, set to 2 tons).
A sample of Fosgonimeton form 1 was subjected to a pressure of 2 tons (Specac Hydraulic Press, set to 2 tons).

[3] = Slurry experiments in solvent, XRPD analysis after filtration; conditions: for XRPD after slurry experiments: various solvents, ambient temperature, 1 or 7 days
Procedure: as §1
(§2) Samples of Fosgonimeton mono sodium salt form N2 were subjected to slurry and to sauna conditions in various conditions. In the slurry experiments, 50 mg of the sample is placed in a 2 mL glass vial with 0.5 mL of solvent. Obtained suspension is stirred at ambient temperature for 1 or 7 days. XRPD analysis is performed on crystalline material after filtration. In the sauna experiments, 50 mg of crystalline material is placed in an Eppendorf tube. 0.5 mL of solvent is placed in a sealed 10 mL glass vial, along with Eppendorf tube. Crystalline material is checked by XRPD analysis after 1 or 7 days.
as §2, with “N5” for “N2”
as §2, with “potassium” for “sodium”, “K1” for “N2”
as §2, with “Fosgonimeton” for “Fosgonimeton mono sodium salt”, “form 1” for “form N2”, “to Sauna” for “to sauna”

[4] = Sauna experiments (solvent vapour in sealed vial), XRPD analysis; conditions: for XRPD after sauna experiments: various solvents, 1 or 7 days
Procedure: as §1, §2
as §2, with “N5” for “N2”
as §2, with “potassium” for “sodium”, “K1” for “N2”
as §2, with “Fosgonimeton” for “Fosgonimeton mono sodium salt”, “form 1” for “form N2”, “to Sauna” for “to sauna”

With `CCCCCC(=O)N[C@@H](Cc1ccc(OP(=O)(O)O)cc1)C(=O)N[C@H](C(=O)NCCCCCC(N)=O)[C@@H](C)CC` [Fosgonimeton mono sodium salt form N2, Fosgonimeton mono sodium salt] (Hexanoyl-[pY]-Ile-[Ahx]-NH2) the “XRPD after Heating” value ([1]; mono sodium salt) was “no polymorphic conversion; also recorded: No polymorphic change”, the “XRPD after Pressure” value ([2]; mono sodium salt) was “no polymorphic conversion; also recorded: No polymorphic change” and the “XRPD after Slurry” value ([3]; 2-Propanol/20-25° C./1 day) was “No polymorphic change”. The “XRPD after Slurry” value ([3]; Acetone/20-25° C./1 day) was “No polymorphic change”, the “XRPD after Slurry” value ([3]; Acetone/20-25° C./7 days) was “No polymorphic change” and the “XRPD after Slurry” value ([3]; Ethanol, 96%/20-25° C./1 day) was “No polymorphic change”. The “XRPD after Slurry” value ([3]; Ethanol, 96%/20-25° C./7 days) was “No polymorphic change”, the “XRPD after Slurry” value ([3]; Ethyl acetate/20-25° C./1 day) was “No polymorphic change” and the “XRPD after Slurry” value ([3]; Water/20-25° C./7 days) was “No polymorphic change”. The “XRPD after slurry experiments” value [3] was “no change in the starting material”, the “XRPD after Sauna” value ([4]; 2-Propanol/20-25° C./7 days) was “No polymorphic change” and the “XRPD after Sauna” value ([4]; Acetone/20-25° C./7 days) was “No polymorphic change”. The “XRPD after Sauna” value ([4]; Ethanol, 96%/20-25° C./7 days) was “No polymorphic change”, the “XRPD after Sauna” value ([4]; Ethyl acetate/20-25° C./7 days) was “No polymorphic change” and the “XRPD after Sauna” value ([4]; Water/20-25° C./7 days) was “No polymorphic change”. The “XRPD after sauna experiments” value [4] was “no change in the starting material”.

For `CCCCCC(=O)N[C@@H](Cc1ccc(OP(=O)(O)O)cc1)C(=O)N[C@H](C(=O)NCCCCCC(N)=O)[C@@H](C)CC` [Fosgonimeton mono potassium salt form K1, Fosgonimeton mono potassium salt] (Hexanoyl-[pY]-Ile-[Ahx]-NH2), the “XRPD after Heating” value ([1]; mono potassium salt) was “no polymorphic conversion; also recorded: No polymorphic change”, the “XRPD after Pressure” value ([2]; mono potassium salt) was “no polymorphic conversion; also recorded: No polymorphic change” and the “XRPD after Slurry” value ([3]; 2-Propanol/20-25° C./7 days) was “No polymorphic change”. The “XRPD after Slurry” value ([3]; Acetone/20-25° C./7 days) was “No polymorphic change”, the “XRPD after Slurry” value ([3]; Ethanol, 96%/20-25° C./7 days) was “No polymorphic change” and the “XRPD after Slurry” value ([3]; Ethyl acetate/20-25° C./7 days) was “No polymorphic change”. For the same molecule, the “XRPD after slurry experiments” value [3] was “no change in the starting material”, the “XRPD after Sauna” value ([4]; 2-Propanol/20-25° C./7 days) was “No polymorphic change” and the “XRPD after Sauna” value ([4]; Acetone/20-25° C./7 days) was “No polymorphic change”. For the same molecule, the “XRPD after Sauna” value ([4]; Ethanol, 96%/20-25° C./7 days) was “No polymorphic change”, the “XRPD after Sauna” value ([4]; Ethyl acetate/20-25° C./7 days) was “No polymorphic change” and the “XRPD after Sauna” value ([4]; Water/20-25° C./7 days) was “No polymorphic change”. For the same molecule, the “XRPD after sauna experiments” value [4] was “no change in the starting material”.

With `CCCCCC(=O)N[C@@H](Cc1ccc(OP(=O)(O)O)cc1)C(=O)N[C@H](C(=O)NCCCCCC(N)=O)[C@@H](C)CC` [Fosgonimeton form 1, [4-[(2S)-3-[[(2S,3S)-1-[(6-amino-6-oxohexyl)amino]-3-methyl-1-oxopentan-2-yl]amino]-2-(hexanoylamino)-3-oxopropyl]phenyl]dihydrogen phosphate] (Hexanoyl-[pY]-Ile-[Ahx]-NH2) the “XRPD after Heating” value [1] was “no polymorphic conversion; also recorded: No polymorphic change”, the “XRPD after Pressure” value [2] was “no polymorphic conversion; also recorded: No polymorphic change” and the “XRPD after Slurry” value ([3]; 2-Propanol/20-25° C./1 day) was “No polymorphic change”. The “XRPD after Slurry” value ([3]; Acetone/20-25° C./1 day) was “No polymorphic change”, the “XRPD after Slurry” value ([3]; Ethanol, 96%/20-25° C./1 day) was “No polymorphic change” and the “XRPD after Slurry” value ([3]; Ethyl acetate/20-25° C./1 day) was “No polymorphic change”.

For `CCCCCC(=O)N[C@@H](Cc1ccc(OP(=O)(O)O)cc1)C(=O)N[C@H](C(=O)NCCCCCC(N)=O)[C@@H](C)CC` [Fosgonimeton mono sodium salt form N5, Fosgonimeton mono sodium salt] (Hexanoyl-[pY]-Ile-[Ahx]-NH2), the “XRPD after Heating” value ([1]; mono sodium salt) was “no polymorphic conversion”, the “XRPD after Pressure” value ([2]; mono sodium salt) was “no polymorphic conversion; also recorded: No polymorphic change” and the “XRPD after Slurry” value ([3]; 2-Propanol/20-25° C./1 day) was “No polymorphic change”. For the same molecule, the “XRPD after Slurry” value ([3]; Acetone/20-25° C./7 days) was “No polymorphic change”, the “XRPD after Slurry” value ([3]; Ethyl acetate/20-25° C./1 day) was “No polymorphic change” and the “XRPD after slurry experiments” value [3] was “no change in the starting material”. The “XRPD after Sauna” value ([4]; 2-Propanol/20-25° C./7 days) was “No polymorphic change”, the “XRPD after Sauna” value ([4]; Ethanol, 96%/20-25° C./7 days) was “No polymorphic change” and the “XRPD after Sauna” value ([4]; Ethyl acetate/20-25° C./7 days) was “No polymorphic change”. For the same molecule, the “XRPD after sauna experiments” value [4] was “no change in the starting material”.
